The text below walks through data of patent publication US9090657B2, “Compound and methods for its production” (NEUROVIVE PHARMACEUTICAL AB, priority 2011, dated 2015).

The test system of series [1] is HCV genotype 1b I389luc-ubi-neo/NS3-3'/5.1 replicon in Huh5.2 cells. In words: HCV genotype 1b replicon assay, antiviral effect (luciferase). The format is cell-based, Hepatitis C virus. The following applies: for EC50: Hepatitis C virus, Huh-5-2, 72 h; for Selectivity index (CC50/EC50): Huh5.2 replicon assay. The protocol: (§1) Dilution series are prepared; each dilution series is performed in at least duplicate.
For the evaluation of antiviral effects, assay medium is aspirated and the cell monolayers are washed with PBS. The wash buffer is aspirated, 25 μL of Glo Lysis Buffer (Cat. No. E2661, Promega) is added after which lysis is allowed to proceed for 5 min at room temperature. Subsequently, 50 μL of Luciferase Assay System (Cat. No. E1501, Promega) is added and the luciferase luminescence signal is quantified immediately (1000 ms integration time/well, Safire^2, Tecan). Relative luminescence units are converted to percentage of untreated controls.
(§2) The selectivity index (SI), indicative of the therapeutic window of the compound, is calculated as CC50/EC50.
(§3) Compounds were analysed in the genotype 1b replicon assay using Huh5.2 cells as described in the General Methods.
On the technique in general: A replicon is a self-replicating genome or part of one, used to study replication in cells.

Series [2] is described as follows: Anti-metabolic effect (MTS) in replicon cells. The following applies: human. The method, then: as §1, §2, §3
The subject of the next series is HIV. Briefly: microbe, parasite or virus in culture. The format is cell-based. Conditions: Human immunodeficiency virus 1, HeLa, read-out: HeLa cells EC50. The method, then: Briefly, human PBMCs were purified from fresh blood by banding on Ficoll-Hypaque (30 min, 800 g, 25° C.). Primary human CD4+ T cells were purified from PBMCs by positive selection with anti-CD4 Dynabeads and subsequent release using Detachabead. […] Three days after stimulation, cells were split 1:2 in medium containing IL-2 (200 units/ml final concentration). Cultures were then split 1:2 every 2 days in IL-2 medium and infected with HIV at 7 days after stimulation. […] To obtain monocyte-derived macrophages, cells were allowed to adhere to plastic and cultured for 6 days to allow differentiation.
CD4+ HeLa cells, Jurkat cells, activated CD4+ peripheral blood T-lymphocytes and macrophages (500,000 cells/100 μL) were incubated with pNL4.3-GFP (X4 virus) or pNL4.3-BaL-GFP (R5 virus) (100 ng of p24) in the presence of increasing concentrations of test article, Forty-eight hours later, infection was scored by analyzing the percentage of GFP-positive cells by FACS and EC50 calculated.
Compounds were analysed in an HIV antiviral assay using HeLa cells as described in the General Methods.

A short description of series [3]: Mouse in vivo oral and iv PK. Conditions: male, CD1 mice, whole blood; for clearance: iv at 1 mg/kg; for AUC(0-t): read-out: po AUClast. The protocol: For sanglifehrin analogues, whole blood is analysed. Compounds are formulated in 5% ethanol/5% cremophor EL/90% saline for both p.o. and i.v. administration. Groups of 3 male CD1 mice are dosed with either 1 mg/kg i.v. or 5 or 10 mg/kg p.o. Blood samples (40 μL) are taken via saphenous vein, pre-dose and at 0.25, 0.5, 2, 8, and 24 hours, and diluted with an equal amount of dH20 and put on dry ice immediately. Samples are stored at −70° C. until analysis. The concentration of the compound of the invention or parent compound in the sample is determined via LCMS as follows: 20 μL of blood:H2O (1:1, v/v)/PK sample is added with 20 μL Internal standard (hydroxyl macrocycle, 6) at 100 ng/mL, 20 μL working solution/MeOH and 150 μL of ACN, vortexed for 1 minute at 1500 rpm, and centrifuged at 12000 rpm for 5 min. The supernatant is then injected into LC-MS/MS. The time-course of blood concentrations is plotted and used to derive area under the whole blood concentration-time curve (AUC—which is directly proportional to the total amount of unchanged drug that reaches the systemic circulation). These values are used to generate PK parameters where possible.
To assess the pharmacokinetics of the compounds in an in vivo setting, compounds were dosed po at 10 or 5 mg/kg and iv at 1 mg/kg to groups of CD1 mice. Pharmacokinetic analysis was carried out as described in the general methods. The PK parameters are shown below.

The target in another series is CypA (Homo sapiens (Human), UniProt P62937). Briefly: biochemical. The protocol: An alternative methodology for analysing interaction with cyclophilins is described as follows: The PPlase activity of recombinant CypA or D, produced by thrombin cleavage of GST-CypA or D, was determined by following the rate of hydrolysis of N-succinyl-Ala-Ala-Pro-Phe-p-nitroanilide by chymotrypsin. Chymotrypsin only hydrolyzes the trans form of the peptide, and hydrolysis of the cis form, the concentration of which is maximized by using a stock dissolved in trifluoroethanol containing 470 mM LiCl, is limited by the rate of cis-trans isomerization. CypA or D was equilibrated for 1 h at 5° C. with selected test article using a drug concentration range from 0.1 to 20 nM. The reaction was started by addition of the peptide, and the change in absorbance was monitored spectrophotometrically at 10 data points per second. The blank rates of hydrolysis (in the absence of CypA or D) were subtracted from the rates in the presence of CypA or D. The initial rates of the enzymatic reaction were analyzed by first-order regression analysis of the time course of the change in absorbance.
To assess the direct inhibition of CypA Peptidyl Prolyl cis-trans Isomerase (PPlase) activity, a method was used as described in the general methods.

The next series addresses OATP1B1 (Homo sapiens (Human), UniProt Q9Y6L6). In words: Uptake transporter inhibition, OATP1B1. The following applies: CHO cells, probe substrate E3S. The format is cell-based. The protocol: (§4) To assess the inhibition of the […] and OAT1B3 uptake transporters, an in vitro uptake transporter assay from Solvo Biotechnology Inc. was used. […] Parental cell line CHO-K was used as negative control. […] Before experiments the medium was aspirated by vacuum suction, cells were washed with 2×100 μl of Krebs-Henseleit buffer pH 7.3 (prepared from Sigma chemicals, Sigma-Aldrich, St Louis, Mo.). Uptake experiments were carried out at 37° C. in 50 μl of Krebs-Henseleit buffer (pH 7.3) containing the probe substrate and the TA or solvent, respectively. […] The probe substrate for the OATP1B1 assay was E3S (0.1 μM) and for the OATP1B3 assay was Fluo-3 (10 μM). The translocated amount of probe substrate was determined for each well in cpm. Relative activities were calculated from the equation: Activity%=(A−B)/(C−D)×100

For a further series, the target named is OATP1B3 (Homo sapiens (Human), UniProt Q9NPD5). Briefly: Uptake transporter inhibition, OATP1B3. Conditions: CHO cells, probe substrate Fluo-3. The format is cell-based. The protocol: as §4
OATP1B3, sequence (Q9NPD5 whole entry): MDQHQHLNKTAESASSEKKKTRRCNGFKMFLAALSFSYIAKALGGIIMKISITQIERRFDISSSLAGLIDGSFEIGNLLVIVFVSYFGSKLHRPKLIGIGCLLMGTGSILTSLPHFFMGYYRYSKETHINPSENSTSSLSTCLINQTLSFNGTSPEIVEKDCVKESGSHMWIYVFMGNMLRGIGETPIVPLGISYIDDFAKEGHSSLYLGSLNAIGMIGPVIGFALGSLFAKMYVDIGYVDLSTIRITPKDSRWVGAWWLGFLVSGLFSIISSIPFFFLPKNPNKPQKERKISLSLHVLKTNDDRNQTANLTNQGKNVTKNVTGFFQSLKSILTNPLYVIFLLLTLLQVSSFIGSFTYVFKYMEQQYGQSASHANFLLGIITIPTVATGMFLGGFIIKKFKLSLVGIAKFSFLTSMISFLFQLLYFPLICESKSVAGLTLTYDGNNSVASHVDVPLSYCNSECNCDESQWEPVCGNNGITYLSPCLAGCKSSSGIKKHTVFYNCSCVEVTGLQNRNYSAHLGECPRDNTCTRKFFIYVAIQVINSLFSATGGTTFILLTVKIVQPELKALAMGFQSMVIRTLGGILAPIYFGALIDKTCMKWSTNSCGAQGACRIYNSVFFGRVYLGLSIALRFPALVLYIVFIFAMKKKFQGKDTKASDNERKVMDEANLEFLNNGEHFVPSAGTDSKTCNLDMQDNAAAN
The target of another series is MRP2 (Homo sapiens (Human), UniProt Q92887). Briefly: Vesicular efflux transporter inhibition, MRP2. The protocol:
(§5) To assess the inhibition of the MRP2, MRP3 and BSEP efflux transporters, an in vitro vesicular transporter assay from Solvo Biotechnology Inc. was used. […] In the case of MRP2 and MRP3 transporters reactions were carried out in the presence of 2 mM glutathione. Reaction mixtures were preincubated for ten minutes at 37° C. Reactions were started by the addition of 25 μl of 12 mM MgATP (4 mM final concentration in assay) or assay buffer for background controls. Reactions were stopped by adding 200 μl of ice-cold washing buffer and immediately followed by filtration on glass fiber filters in a 96-well format (filter plate). Scintillation buffer was added to the washed and dried filter plate and scintillation was counted subsequently. Probe substrates were taurocholate (2 μM) for BSEP vesicles and E217βG (1 μM) for MRP2 and MRP3 vesicles. For all wells the translocated amount of the probe substrate was determined in cpm units. Relative activities were calculated with the following equation:
(§6) Activity %=(A−B)/(C−D)×100 Where A=translocated amount of substrate in the presence of TA and ATP, B=translocated amount of substrate in the presence of TA, C=translocated amount of substrate in the presence of solvent and ATP and D=translocated amount of substrate in the presence of solvent. […]

In a further series the target is MRP3 (Homo sapiens (Human), UniProt O15438). In words: Vesicular efflux transporter inhibition, MRP3. The protocol: as §5, §6
MRP3, sequence (O15438 whole entry): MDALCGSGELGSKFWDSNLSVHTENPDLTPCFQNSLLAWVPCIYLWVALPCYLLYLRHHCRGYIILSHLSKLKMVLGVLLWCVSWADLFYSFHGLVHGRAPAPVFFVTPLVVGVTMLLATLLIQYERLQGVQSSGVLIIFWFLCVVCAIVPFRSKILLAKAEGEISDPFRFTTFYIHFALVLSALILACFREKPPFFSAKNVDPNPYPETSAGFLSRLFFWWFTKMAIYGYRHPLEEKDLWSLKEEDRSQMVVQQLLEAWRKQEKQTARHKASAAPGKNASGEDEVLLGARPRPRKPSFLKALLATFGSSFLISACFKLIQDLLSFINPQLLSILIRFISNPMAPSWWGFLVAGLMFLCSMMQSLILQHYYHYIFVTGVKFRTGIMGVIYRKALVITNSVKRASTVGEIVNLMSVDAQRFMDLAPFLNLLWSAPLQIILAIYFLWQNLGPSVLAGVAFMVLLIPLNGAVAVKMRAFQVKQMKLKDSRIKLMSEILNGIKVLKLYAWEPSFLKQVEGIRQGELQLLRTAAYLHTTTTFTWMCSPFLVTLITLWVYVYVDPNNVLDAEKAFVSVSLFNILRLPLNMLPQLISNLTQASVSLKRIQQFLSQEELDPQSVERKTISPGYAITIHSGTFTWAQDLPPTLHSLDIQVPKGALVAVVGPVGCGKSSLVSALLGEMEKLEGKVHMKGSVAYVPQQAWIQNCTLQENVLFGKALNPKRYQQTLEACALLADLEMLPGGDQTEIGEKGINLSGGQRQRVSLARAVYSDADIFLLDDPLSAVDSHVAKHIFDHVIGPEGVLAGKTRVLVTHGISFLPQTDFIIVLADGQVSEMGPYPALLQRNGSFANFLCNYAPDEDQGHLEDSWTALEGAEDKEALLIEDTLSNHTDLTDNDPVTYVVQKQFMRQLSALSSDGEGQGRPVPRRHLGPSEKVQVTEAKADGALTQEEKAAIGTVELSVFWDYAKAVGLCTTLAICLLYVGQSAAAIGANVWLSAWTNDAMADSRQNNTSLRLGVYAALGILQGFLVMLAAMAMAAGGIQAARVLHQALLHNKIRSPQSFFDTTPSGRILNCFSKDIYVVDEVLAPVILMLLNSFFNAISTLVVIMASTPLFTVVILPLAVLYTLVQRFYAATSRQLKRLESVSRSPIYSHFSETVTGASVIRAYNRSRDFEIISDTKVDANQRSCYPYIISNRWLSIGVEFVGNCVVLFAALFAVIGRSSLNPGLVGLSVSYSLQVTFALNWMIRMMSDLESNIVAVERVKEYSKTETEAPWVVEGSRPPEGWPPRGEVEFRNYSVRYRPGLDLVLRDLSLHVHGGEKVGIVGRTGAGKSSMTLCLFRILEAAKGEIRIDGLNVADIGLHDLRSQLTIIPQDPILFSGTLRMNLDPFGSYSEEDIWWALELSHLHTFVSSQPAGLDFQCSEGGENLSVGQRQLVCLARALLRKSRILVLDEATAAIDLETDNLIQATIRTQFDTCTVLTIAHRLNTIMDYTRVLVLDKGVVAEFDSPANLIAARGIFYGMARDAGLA
For series [4], the target named is P-glycoprotein (Pgp/MDR1) (Homo sapiens (Human), UniProt P08183). In words: Inhibition of Pgp transporter using MDR1-MDCK cells. The format is cell-based. The following applies: loperamide substrate.
Experimental: To assess the inhibition of the P-glycoprotein (Pgp/MDR1) transporter, an in vitro ATPase assay from Cyprotex was used. MDR1—MDCK cells obtained from the NIH (Rockville, Md., USA) were used. Following culture, the monolayers were prepared by rinsing both basolateral and apical surfaces twice with buffer at pH 7.4 and 37° C. […] For the apical to basolateral study (A-B), buffer at pH 7.4 was removed from the apical compartment and replaced with loperamide dosing solutions before being placed in the ‘companion’ plates. The solutions were prepared by diluting loperamide in DMSO with buffer to give a final loperamide concentration of 5 μM (final DMSO concentration adjusted to 1%). The fluorescent integrity marker Lucifer yellow was also included in the dosing solution. The experiment was performed in the presence and absence of the test compound (applied to both the apical and basolateral compartments). For basolateral to apical (B-A) study, the P-glycoprotein substrate, loperamide (final concentration=5 μM) was placed in the basolateral compartment. The experiment was performed in the presence and absence of the test compound (applied to the apical and basolateral compartments). […] The test compound was assessed at 0.1, 0.3, 1, 3, 10, 30 and 50 μM. […] After analysis, an IC50 was calculated (i.e., inhibitor concentration (test drug) achieving half maximal inhibition effect).
For series [5], the target named is Bile Salt Export Pump (BSEP) (Homo sapiens (Human), UniProt O95342). Briefly: Vesicular efflux transporter inhibition, BSEP. The following applies: membrane vesicles, probe taurocholate. The format is biochemical. The protocol:
Relative activities were calculated with the following equation: […]

The subject of a further series is Huh5.2 cells. In words: Anti-metabolic effect (MTS) in replicon cells. Conditions: Huh5.2 cells, MTS, 72 hours. The protocol:
as §1, §2, §3

Another series deals with HBV. Conditions: Ptak et al. 2008; read-out: IC50 against HBV; cited from earlier work.

The structures appear in SMILES notation. Read-outs that look alike come from different tables or passages of the source.

MRP2, sequence (Q92887 whole entry): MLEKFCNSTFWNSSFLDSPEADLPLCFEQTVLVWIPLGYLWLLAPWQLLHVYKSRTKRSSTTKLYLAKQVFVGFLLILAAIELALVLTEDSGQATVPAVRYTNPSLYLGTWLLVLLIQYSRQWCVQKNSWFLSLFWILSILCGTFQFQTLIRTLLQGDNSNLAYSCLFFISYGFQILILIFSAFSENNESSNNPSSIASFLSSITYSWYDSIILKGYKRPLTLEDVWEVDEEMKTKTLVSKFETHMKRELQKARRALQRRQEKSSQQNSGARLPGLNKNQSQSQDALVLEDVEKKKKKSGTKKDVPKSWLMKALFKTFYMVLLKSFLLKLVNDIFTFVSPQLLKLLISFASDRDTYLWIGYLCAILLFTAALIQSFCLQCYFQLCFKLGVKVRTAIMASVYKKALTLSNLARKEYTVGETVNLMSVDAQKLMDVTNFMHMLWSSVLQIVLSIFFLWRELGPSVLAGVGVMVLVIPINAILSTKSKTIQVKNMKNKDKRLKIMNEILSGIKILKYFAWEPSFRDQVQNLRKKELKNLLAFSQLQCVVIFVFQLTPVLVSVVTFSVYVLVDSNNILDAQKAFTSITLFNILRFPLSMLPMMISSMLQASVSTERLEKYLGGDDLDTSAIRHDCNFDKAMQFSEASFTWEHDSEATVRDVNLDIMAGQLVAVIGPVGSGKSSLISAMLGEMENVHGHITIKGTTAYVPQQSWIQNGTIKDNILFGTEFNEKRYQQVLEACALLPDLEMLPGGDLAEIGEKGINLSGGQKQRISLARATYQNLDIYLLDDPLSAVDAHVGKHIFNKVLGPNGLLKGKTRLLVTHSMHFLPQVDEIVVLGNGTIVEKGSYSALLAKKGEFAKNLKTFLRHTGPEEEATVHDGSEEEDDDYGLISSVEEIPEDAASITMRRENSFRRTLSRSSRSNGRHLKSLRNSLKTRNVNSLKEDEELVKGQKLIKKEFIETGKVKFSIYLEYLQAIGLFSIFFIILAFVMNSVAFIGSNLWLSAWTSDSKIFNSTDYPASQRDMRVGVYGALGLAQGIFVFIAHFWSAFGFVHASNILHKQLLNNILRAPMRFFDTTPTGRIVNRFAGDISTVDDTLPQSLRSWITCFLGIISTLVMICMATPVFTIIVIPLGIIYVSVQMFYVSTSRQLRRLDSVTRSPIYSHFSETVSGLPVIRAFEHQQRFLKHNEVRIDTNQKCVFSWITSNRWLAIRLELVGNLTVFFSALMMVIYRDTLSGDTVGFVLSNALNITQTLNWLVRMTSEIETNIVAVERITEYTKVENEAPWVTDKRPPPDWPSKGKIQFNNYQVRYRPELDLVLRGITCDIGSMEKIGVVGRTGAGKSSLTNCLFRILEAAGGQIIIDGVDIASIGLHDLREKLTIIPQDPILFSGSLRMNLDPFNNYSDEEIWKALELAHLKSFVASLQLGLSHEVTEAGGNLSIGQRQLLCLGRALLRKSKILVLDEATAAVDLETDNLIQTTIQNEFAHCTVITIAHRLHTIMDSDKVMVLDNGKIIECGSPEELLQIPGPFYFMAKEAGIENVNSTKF
Bile Salt Export Pump (BSEP), sequence (O95342 whole entry): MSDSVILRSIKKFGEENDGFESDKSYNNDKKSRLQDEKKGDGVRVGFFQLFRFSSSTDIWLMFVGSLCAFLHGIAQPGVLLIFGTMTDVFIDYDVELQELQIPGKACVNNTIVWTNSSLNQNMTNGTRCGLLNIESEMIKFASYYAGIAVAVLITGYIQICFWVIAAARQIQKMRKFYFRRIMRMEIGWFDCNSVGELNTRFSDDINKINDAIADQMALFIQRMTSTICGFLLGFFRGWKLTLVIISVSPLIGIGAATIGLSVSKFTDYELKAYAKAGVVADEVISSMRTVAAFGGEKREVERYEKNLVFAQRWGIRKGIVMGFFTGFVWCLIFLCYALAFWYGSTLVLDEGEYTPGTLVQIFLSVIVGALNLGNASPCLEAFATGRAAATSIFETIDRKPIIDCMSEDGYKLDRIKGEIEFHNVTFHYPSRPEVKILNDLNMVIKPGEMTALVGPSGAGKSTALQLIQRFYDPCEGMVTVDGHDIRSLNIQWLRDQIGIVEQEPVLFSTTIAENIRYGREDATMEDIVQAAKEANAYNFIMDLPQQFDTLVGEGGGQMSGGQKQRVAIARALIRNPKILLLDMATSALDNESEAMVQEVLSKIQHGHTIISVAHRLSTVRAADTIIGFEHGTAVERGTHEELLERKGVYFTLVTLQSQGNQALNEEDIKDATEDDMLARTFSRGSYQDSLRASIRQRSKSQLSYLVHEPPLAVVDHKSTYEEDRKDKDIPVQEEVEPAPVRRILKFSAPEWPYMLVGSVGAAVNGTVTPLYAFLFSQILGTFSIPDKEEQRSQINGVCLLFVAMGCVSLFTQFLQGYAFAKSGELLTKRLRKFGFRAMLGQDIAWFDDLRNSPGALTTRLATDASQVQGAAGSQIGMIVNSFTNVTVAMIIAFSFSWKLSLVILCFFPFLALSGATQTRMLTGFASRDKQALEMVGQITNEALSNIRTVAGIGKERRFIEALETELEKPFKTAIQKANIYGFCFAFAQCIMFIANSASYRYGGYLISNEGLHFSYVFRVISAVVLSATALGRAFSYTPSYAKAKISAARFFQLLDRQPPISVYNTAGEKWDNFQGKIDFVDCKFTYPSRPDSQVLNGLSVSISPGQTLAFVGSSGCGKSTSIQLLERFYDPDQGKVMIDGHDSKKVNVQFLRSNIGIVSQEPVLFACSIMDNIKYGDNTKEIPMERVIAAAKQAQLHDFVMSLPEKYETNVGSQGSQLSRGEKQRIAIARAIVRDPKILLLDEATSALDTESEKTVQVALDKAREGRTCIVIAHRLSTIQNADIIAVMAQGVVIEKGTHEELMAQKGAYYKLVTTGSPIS

As for `CC(=O)CC[C@H]1C(=O)N[C@@H](C(C)C)C(=O)N[C@@H](Cc2cccc(O)c2)C(=O)N2CCC[C@H](N2)C(=O)O[C@H](/C(C)=C/CO)C/C=C/C=C/[C@H](O)[C@H](C)[C@H]1O` [Hydroxymacrocycle, 6], in series [1], the EC50 was 8400 nM and the “Selectivity index (CC50/EC50)” value is on record as 9.9. It took 83600 nM to reach half-maximal cytotoxicity in series [2] (CC50 at 72 h).
Consider `Nc1nc(=O)n([C@@H]2CS[C@H](CO)O2)cc1F` [Emtricitabine], for which the EC50 in the series with HIV worked out at 400 nM.
As to `CC[C@H]1C[C@H](C)[C@@]2(NC1=O)O[C@@H](C[C@H](O)[C@@H](C)CC/C=C/C=C(\C)[C@@H]1C/C=C/C=C/[C@H](O)[C@H](C)[C@@H](O)[C@@H](CCC(C)=O)C(=O)N[C@@H](C(C)C)C(=O)N[C@@H](Cc3cccc(O)c3)C(=O)N3CCC[C@H](N3)C(=O)O1)[C@H](C)[C@H](O)[C@@H]2C` [Sanglifehrin A, 5, Sanglifehrin A], the response in series [1] was half-maximal at 318 nM (EC50). The CC50 at 72 h in series [2] stood at 9100 nM. The compound also showed a clearance in [3] of 0.9 mL/min/kg. Also, the AUC(0-t) in [3] (po 10 mg/kg) came out at 2330 ng·h/mL.
Turning to `CC(=O)CC[C@H]1C(=O)N[C@@H](C(C)C)C(=O)N[C@@H](Cc2cc(O)cc(F)c2)C(=O)N2CCCC(N2)C(=O)O[C@H](/C(C)=C/C=C/C(=O)N2CCCCO2)C/C=C/C=C/[C@H](O)[C@H](C)[C@H]1O` (stereo partly drawn) [Compound 24], the EC50 in series [1] stood at 33 nM; in the series with HIV, 130 nM. In addition, the “Selectivity index (CC50/EC50)” value in [1] is more than 3030. This compound came in with a CC50 at 72 h in series [2] of more than 100000 nM. The clearance in [3] was 0.283 mL/min/kg. For the same compound, the AUC(0-t) in series [3] (po 5 mg/kg) was determined as 8220 ng·h/mL. Besides, the half-maximal inhibitory concentration (IC50) on CypA was 0.31 nM; against OATP1B1, 4300 nM; against OATP1B3 it was 1800 nM; against MRP2, more than 50000 nM; at MRP3, more than 50000 nM; in series [4] it was more than 50000 nM. Further, the half-maximal inhibitory concentration (IC50) in series [5] is 12300 nM.
With `C/C=C/C[C@@H](C)[C@@H](O)[C@H]1C(=O)N[C@@H](CC)C(=O)N(C)[C@H](C)C(=O)N(CC)[C@@H](C(C)C)C(=O)N[C@@H](C(C)C)C(=O)N(C)[C@@H](CC(C)C)C(=O)N[C@@H](C)C(=O)N[C@H](C)C(=O)N(C)[C@@H](CC(C)C)C(=O)N(C)[C@@H](CC(C)C)C(=O)N(C)[C@@H](C(C)C)C(=O)N1C` [DEBIO-025, 2, DEBIO-025], the EC50 in [1] is 96 nM; with HIV, 1500 nM. In addition, the “Selectivity index (CC50/EC50)” value in series [1] stood at 111. This compound yielded a CC50 in the series on Huh5.2 cells of 11200 nM. Also, the IC50 is 0.8 nM at CypA (read-out: CypA PPIase IC50, recombinant CypA); 450 nM against OATP1B1; 190 nM against OATP1B3; 16000 nM against MRP2; more than 50000 nM against MRP3; 720 nM in series [4]. In addition, the 50% inhibitory concentration (IC50) is 180 nM in series [5] and 4100 nM with HBV.

A word on the EC50: it is the concentration at which the effect is half-maximal. A word on the CC50: it is the concentration that lowers cell viability or growth by half. One may read the IC50 as the midpoint of a concentration-inhibition curve.
